In patent publication US11672871B2, “Peptide oligonucleotide conjugates” (Sarepta Therapeutics, Inc., priority 2015, dated 2023):

Test system: HeLa-654 cells
Test: HeLa cell assay: e-GFP fluorescence from exon skipping / cellular delivery, by flow cytometry
Type: cell-based
Details: Accuri C6 flow cytometer, signal reflects exon skipping and cellular uptake
Experimental: The height of the green fluorescent signal bars indicate different intensities based on the level of exon skipping that occurs in the nucleus of HeLa-654 cells, whether the cells are treated or untreated with test compounds. The signal intensity or size of the bar also corresponds to the effectiveness of cellular uptake (that is, delivery into the cell). […] The various treatment regimens include continuous treatment of HeLa-654 cells over time or pulse-chase treatments where a test compound is incubated with cells and then after a period of time (3 hours) is washed away from the cells and fresh, test compound-free media is added.
Results: The baseline activity of unconjugated PMO and untreated cells is shown. The peptide/PMO (PPMO) conjugates of the present disclosure all show greater cellular uptake than: 1) unconjugated PMO, and 2) untreated cells (which reveal the green fluorescent background signal). This difference in fluorescence intensity between the peptide/PMO conjugates of the present invention and the background or unconjugated-PMO indicates significant pharmacological activity of the stapled peptide/PMO conjugates.

In the case of “PPMO 3: (i, i+4) hexafluorobenzene-stapled peptide-PMO conjugate, sequence SEQ ID NO: 9 (GCTATTACCTTAACCCAG; all phosphorodiamidate morpholino (PMO); stapled cell-penetrating peptide conjugated to PMO)”, the “Mean FL1-H (mean fluorescence intensity of e-GFP)” value is reported as 123,401.08.
